Test results reported in patent US20250257061A1, “COMPOSITIONS AND METHODS FOR TREATING CANCER AND REDUCING WNT MEDIATED EFFECTS” (StemSynergy Therapeutics, Inc., priority 2024, published 2025).
Where two headings read alike, the source gives them in different places.

What was measured:
[1] = system: Wnt reporter (TCF/LEF1 promoter); assay: HEK STF293 Wnt reporter (TOPFlash) luciferase assay, Steady Glo normalised to Cell Titer; format: cell-based, human; conditions: Homo sapiens
Protocol: All compounds were tested using the human cell line HEK STF293. This cell line carries a Wnt reporter (TCF/LEF1 promoter), which drives expression of the firefly luciferase protein. The level of Wnt activity is directly correlated with the level of luciferase activity (determined using a simple assay). Compounds that inhibit Wnt signaling by reducing luciferase activity in these two cell lines are further tested biochemically. […] Compounds were further tested in a Viability assay using Wnt-dependent HCT116 cell line. Compounds were prepared as 10 mM stocks for each compound in DMSO. Dilutions were prepared in a 96-well plate in DMSO. The stock dilutions are as follows: 10 mM, 1 mM, 100 μM, 10 μM, 100 nM, and 10 nM. Plates were sealed and stored at −20° C. […] On the first day, Wnt3a-conditioned media (1:1) were added along with diluted compounds (1:100). […] The final concentrations should therefore be 100 μM, 10 μM, 1 μM, 100 nM, 10 nM, and 1 nM. On the second day, the media was removed and 75 μL of Passive Lysis Buffer (Promega) is added to each well. The plate was shaken at 130 rpm for 15 minutes. For the Steady Glo assay, 45 μL of the lysis was removed and added to a white 96-well plate containing 45 μL/well of Steady Glo solution (Promega). For the Cell Titer assay, 25 μL of the lysis was transferred to a white 96-well plate containing 25 μL/well of Cell Titer solution (Promega). Both Steady Glo and Cell Titer assays were read with a luminescence plate reader. When determining EC50, the Steady Glo values were divided by the Cell Titer values to normalize for cell number. All compounds were tested using the human cell line HEK STF293. This cell line carries a Wnt reporter (TCF/LEF1 promoter), which drives expression of the firefly luciferase protein. The level of Wnt activity is directly correlated with the level of luciferase activity (determined using a simple assay). Compounds that inhibit Wnt signaling by reducing luciferase activity in these two cell lines are further tested biochemically. […] Compounds were further tested in a Viability assay using Wnt-dependent HCT116 cell line. Compounds were prepared as 10 mM stocks for each compound in DMSO. Dilutions were prepared in a 96-well plate in DMSO. The stock dilutions are as follows: 10 mM, 1 mM, 100 μM, 10 μM, 100 nM, and 10 nM. Plates were sealed and stored at −20° C. […] On the first day, Wnt3a-conditioned media (1:1) were added along with diluted compounds (1:100). […] The final concentrations should therefore be 100 μM, 10 μM, 1 μM, 100 nM, 10 nM, and 1 nM. On the second day, the media was removed and 75 μL of Passive Lysis Buffer (Promega) is added to each well. The plate was shaken at 130 rpm for 15 minutes. For the Steady Glo assay, 45 μL of the lysis was removed and added to a white 96-well plate containing 45 μL/well of Steady Glo solution (Promega). For the Cell Titer assay, 25 μL of the lysis was transferred to a white 96-well plate containing 25 μL/well of Cell Titer solution (Promega). Both Steady Glo and Cell Titer assays were read with a luminescence plate reader. When determining EC50, the Steady Glo values were divided by the Cell Titer values to normalize for cell number. All compounds were tested using the human cell line HEK STF293. This cell line carries a Wnt reporter (TCF/LEF1 promoter), which drives expression of the firefly luciferase protein. The level of Wnt activity is directly correlated with the level of luciferase activity (determined using a simple assay). Compounds that inhibit Wnt signaling by reducing luciferase activity in these two cell lines are further tested biochemically. […] Compounds were further tested in a Viability assay using Wnt-dependent HCT116 cell line. Compounds were prepared as 10 mM stocks for each compound in DMSO. Dilutions were prepared in a 96-well plate in DMSO. The stock dilutions are as follows: 10 mM, 1 mM, 100 μM, 10 μM, 100 nM, and 10 nM. Plates were sealed and stored at −20° C. […]

[2] = system: Wnt-dependent HCT116 cell line; assay: Viability assay using Wnt-dependent HCT116 cell line (Cell Titer Glo); format: cell-based; conditions: Homo sapiens
Protocol: All compounds were tested using the human cell line HEK STF293. This cell line carries a Wnt reporter (TCF/LEF1 promoter), which drives expression of the firefly luciferase protein. The level of Wnt activity is directly correlated with the level of luciferase activity (determined using a simple assay). Compounds that inhibit Wnt signaling by reducing luciferase activity in these two cell lines are further tested biochemically. […] Compounds were further tested in a Viability assay using Wnt-dependent HCT116 cell line. HEK293 cells were seeded in a 6-well plate at approximately 8.0×10^5 cells (2 mL per well). On the first day, Wnt3a-conditioned media (1:1) and compounds (1:100) were added to the plated cells. The final concentrations of compounds were 1 μM, 500 nM, and 100 nM. Vehicle (DMSO) and a Wnt3a-conditioned media plus Vehicle samples were also prepared as controls. Lysates were collected (with non-denaturing lysis buffer) after 24 hours incubation, and protein concentrations determined by Bradford Assay. Immunoblotting with an anti-beta-catenin antibody (equivalent amounts of protein/lane for each condition) were subsequently performed to determine beta-catenin levels. HCT116 cells were seeded at 2,500 cells/well in a 96-well dish (Volume: 100 μL/well). On the second day, the 10 mM stock solution of each test compound was thawed at room temperature. Dilutions of the test compound were prepared in DMSO in a V-bottom 96-well plate. The stock compound solution, DMSO-diluted compound solutions, and DMSO were further diluted 500-fold in cell culture media, and 100 μL of the compound- or DMSO-containing cell culture media was added to each well of the cells. […] The final DMSO concentration was 0.1% in all wells. On the fifth day, 150 μL of media was removed from each well. 50 μL/well Cell Titer Glo reagent (Promega) was added to each well. The plate was shaken at 130 rpm for 15 minutes at room temperature, and the cell viability was determined using a luminescence plate reader. All compounds were tested using the human cell line HEK STF293. This cell line carries a Wnt reporter (TCF/LEF1 promoter), which drives expression of the firefly luciferase protein. The level of Wnt activity is directly correlated with the level of luciferase activity (determined using a simple assay). Compounds that inhibit Wnt signaling by reducing luciferase activity in these two cell lines are further tested biochemically. […] Compounds were further tested in a Viability assay using Wnt-dependent HCT116 cell line. HEK293 cells were seeded in a 6-well plate at approximately 8.0×10^5 cells (2 mL per well). On the first day, Wnt3a-conditioned media (1:1) and compounds (1:100) were added to the plated cells. The final concentrations of compounds were 1 μM, 500 nM, and 100 nM. Vehicle (DMSO) and a Wnt3a-conditioned media plus Vehicle samples were also prepared as controls. Lysates were collected (with non-denaturing lysis buffer) after 24 hours incubation, and protein concentrations determined by Bradford Assay. Immunoblotting with an anti-beta-catenin antibody (equivalent amounts of protein/lane for each condition) were subsequently performed to determine beta-catenin levels. HCT116 cells were seeded at 2,500 cells/well in a 96-well dish (Volume: 100 μL/well). On the second day, the 10 mM stock solution of each test compound was thawed at room temperature. Dilutions of the test compound were prepared in DMSO in a V-bottom 96-well plate. The stock compound solution, DMSO-diluted compound solutions, and DMSO were further diluted 500-fold in cell culture media, and 100 μL of the compound- or DMSO-containing cell culture media was added to each well of the cells. […] The final DMSO concentration was 0.1% in all wells. On the fifth day, 150 μL of media was removed from each well. 50 μL/well Cell Titer Glo reagent (Promega) was added to each well. The plate was shaken at 130 rpm for 15 minutes at room temperature, and the cell viability was determined using a luminescence plate reader. […]

[3] = STF/293, Examples for Formulae (IV), (V), (VI), and (VII), HEK STF293 cells, Wnt3a-conditioned media, read-out: TOPFlash IC50 category
[4] = HCT-116, Examples for Formulae (IV), (V), (VI), and (VII), HCT116 cells, read-out: Viability IC50 category
[5] = STF/293, Examples for Formulae (I), (II), and (III), HEK STF293 cells, Wnt3a-conditioned media, read-out: TOPFlash IC50 category
[6] = HCT-116, Examples for Formulae (I), (II), and (III), HCT116 cells, read-out: Viability IC50 category
[7] = STF/293, read-out: TOPFlash IC50 category
[8] = HCT-116, read-out: Viability IC50 category

IC50 [2, 4] [nM] | Compound | IC50 [1, 3] [nM] | further results
< 200 | CN(C(=O)c1ccc(F)cc1)c1nc(-c2ccc(F)cc2)c(C(=O)Nc2nc(-c3ccccn3)cs2)o1 [Example 76] | < 200 | 
 | Cn1cc(C(=O)Nc2nc(-c3ccccn3)cs2)c(-c2ccccc2Cl)n1 [Example 2] |  | IC50 [1, 5]: 1000 to 10000 nM; IC50 [2, 6]: 500 to 1000 nM
 | Cc1onc(-c2ccccc2Cl)c1C(=O)Nc1nc(-c2ccccn2)cs1 [Example 28] |  | IC50 [1, 7]: 200 to 500 nM; IC50 [2, 8]: 200 to 500 nM
200 to 500 | Cc1onc(-c2ccc(C(F)(F)F)c(Cl)c2)c1C(=O)Nc1nc(-c2ccccn2)cs1 [Example 63] | 200 to 500 | 
200 to 500 | Cc1onc(-c2ccc(F)cc2)c1C(=O)Nc1nc(-c2ccccn2)cs1 [Example 4] | < 200 | 
500 to 1000 | CN(C(=O)c1ccccc1F)c1ncc(C(=O)Nc2nc(-c3ccccn3)cs2)o1 [Example 36] | 200 to 500 | 
200 to 500 | Cc1noc(-c2ccccc2)c1C(=O)Nc1nc(-c2ccccn2)cs1 [Example 3] | 200 to 500 | 
 | Cc1nn(Cc2ccc(C(F)(F)F)cc2)c(C)c1C(=O)Nc1nc(-c2ccccn2)cs1 [Example 16] |  | IC50 [1, 5]: 500 to 1000 nM; IC50 [2, 6]: 500 to 1000 nM
200 to 500 | CN(c1nc(C(F)(F)F)c(C(=O)Nc2nc(-c3ccccn3)cs2)o1)S(=O)(=O)c1ccc(C(F)(F)F)cc1 [Example 55] | 200 to 500 | 
500 to 1000 | O=C(Nc1nc(-c2ccccn2)cs1)c1ocnc1-c1ccc(C(=O)N2CCOCC2)cc1 [Example 42] | 500 to 1000 | 
 | O=C(Nc1nc(-c2ccccn2)cs1)c1oc(CO)nc1-c1ccc(F)cc1 [Example 70, 4-(4-fluorophenyl)-2-(hydroxymethyl)-N-(4-(pyridin-2-yl)thiazol-2-yl)oxazole-5-carboxamide] |  | IC50 [1, 7]: 500 to 1000 nM; IC50 [2, 8]: 200 to 500 nM
 | O=C(Nc1nc(-c2ccccn2)cs1)c1cc(Cl)c(=O)n(Cc2ccc(C(F)(F)F)cc2)c1 [Example 8] |  | IC50 ([1]; STF/293, Examples for Formulae (VIII), (IX), and (X), HEK STF293 cells, Wnt3a-conditioned media, read-out: TOPFlash IC50 category): 500 to 1000 nM; IC50 ([2]; HCT-116, Examples for Formulae (VIII), (IX), and (X), HCT116 cells, read-out: Viability IC50 category): 200 to 500 nM
200 to 500 | O=C(Nc1nc(-c2ccccn2)cs1)c1ocnc1-c1ccccc1 [Example 2] | < 200 | 
